Where two headings read alike, the source gives them in different places.
Assays:
[1] = tested on: Serratia marcescens expressing IMP-1 (CL5741); format: cell-based; conditions: IMP-1 strain CL5741, with imipenem 1 μg/ml, 95% inhibition of growth
How it was run: (§1)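 Clinical strains grown overnight on blood agar at 35°C, colonies suspended in saline, diluted 1:100 into 1.1×CAMHB. Test compound titrated with imipenem at 1 μg/ml; incubated 22–24 h at 35°C, growth read by absorbance.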

[2] = tested on: Klebsiella pneumoniae expressing VIM-1 (IHMA599644); format: cell-based; conditions: VIM-1 strain IHMA599644, with imipenem 1 μg/ml, 95% inhibition of growth
How it was run: as §1

[3] = tested on: Escherichia coli expressing NDM-1 (CLB30005, CLB30016); format: cell-based; conditions: NDM-1 strain, with imipenem 1 μg/ml, 95% inhibition of growth
How it was run: as §1

[4] = tested on: Pseudomonas aeruginosa MB9798 vs MB9799; conditions: ratio MITC95 PA_9798/MITC95 PA_9799
How it was run: (§2)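 Microbroth MIC tests in PAO1-background strains with fixed imipenem and/or ceftazidime, usually at the CLSI breakpoint, plus fixed class A/C β-lactamase inhibitor against AmpC. MBL inhibitor titrated; concentration restoring susceptibility recorded and compared as fold difference between efflux+ MB9798 and efflux− MB9799.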

[5] = tested on: Pseudomonas aeruginosa efflux+ (MB9798), IMP-1; format: cell-based; conditions: concentration restoring susceptibility to imipenem at 2 μg/mL in the presence of a class A, C, D serine β-lactamase inhibitor closely related to relebactam
How it was run: as §2

[6] = target: VIM-1 (Pseudomonas aeruginosa (strain ATCC 15692 / DSM 22644 / CIP 104116 / JCM 14847 / LMG 12228 / 1C / PRS 101 / PAO1), UniProt A0A0F7KYQ8); assay: biochemical; conditions: CCF2-FA substrate, 30 pM enzyme, 2 hours at 25° C.
How it was run: (§3)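 Semi-log dose-response curves, fitted with a 4-parameter model, gave IC50s. The underlying signal was CCF2-FA fluorescence following 2 hours at 25° C with enzyme, substrate and inhibitor combined.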

[7] = tested on: Pseudomonas aeruginosa efflux− (MB9799), IMP-1; format: cell-based; conditions: concentration restoring susceptibility to imipenem at 2 μg/mL in the presence of a class A, C, D serine β-lactamase inhibitor closely related to relebactam
How it was run: as §2

[8] = target: NDM-1 (Klebsiella pneumoniae, UniProt C7C422); assay: biochemical; format: biochemical; conditions: fluorescence assay, CCF2-FA substrate, 1 pM enzyme, 2 hours at 25° C.; read-out: NDM-1 IC50
How it was run: as §3

[9] = target: IMP-1 (Serratia marcescens, UniProt P52699); assay: biochemical; format: biochemical; conditions: fluorescence assay, CCF2-FA substrate, 2 pM enzyme, 2 hours at 25° C.; read-out: IMP-1 IC50
How it was run: as §3

[10] = fluorescence assay, read-out: VIM-1 IC50

Chain of NDM-1 (C7C422 whole entry, looked up, species assumed): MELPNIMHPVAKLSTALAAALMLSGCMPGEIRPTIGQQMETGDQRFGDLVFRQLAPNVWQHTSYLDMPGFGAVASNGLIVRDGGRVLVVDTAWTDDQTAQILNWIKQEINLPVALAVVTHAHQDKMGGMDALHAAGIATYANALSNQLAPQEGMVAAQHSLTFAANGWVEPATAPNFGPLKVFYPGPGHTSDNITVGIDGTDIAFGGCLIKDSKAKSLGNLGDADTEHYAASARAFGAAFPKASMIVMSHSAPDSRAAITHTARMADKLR
Chain of IMP-1 (P52699 whole entry, looked up, species assumed): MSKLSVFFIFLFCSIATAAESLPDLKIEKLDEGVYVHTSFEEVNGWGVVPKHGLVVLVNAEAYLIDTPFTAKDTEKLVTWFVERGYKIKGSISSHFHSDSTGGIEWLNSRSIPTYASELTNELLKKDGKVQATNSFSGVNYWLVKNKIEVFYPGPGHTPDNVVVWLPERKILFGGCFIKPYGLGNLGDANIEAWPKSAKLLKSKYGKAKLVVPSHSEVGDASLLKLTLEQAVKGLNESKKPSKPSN

Row | SMILES | Serratia marcescens MITC95 [1] [µM] | Klebsiella pneumoniae MITC95 [2] [µM] | Escherichia coli MITC95 [3] [µM] | Efflux ratio [4] | P. aeruginosa expressing IMP-1, efflux + (MB9798) MITC95 [5] [µM] | IC50 ([6]; VIM-1 IC50, fluorescence assay) [nM] | P. aeruginosa expressing IMP-1, efflux − (MB9799) MITC95 [7] [µM] | IC50 [8] [nM] | IC50 [9] [nM] | IC50 [6, 10] [nM]
1 | NCCNS(=O)(=O)c1ccc(-c2cccc3ccc(N)nc23)c(-c2nn[nH]n2)c1S(N)(=O)=O [Example 355, N1-(2-aminoethyl)-4-(2-aminoquinolin-8-yl)-3-(2H-tetrazol-5-yl)benzene-1,2-disulfonamide] | 0.7813 | 1.563 | 0.1953 | 1.00 | 0.7813 | 0.141 | 0.7813 | 0.0509 | 0.2 | –
2 | NCCNS(=O)(=O)c1ccc(-c2cccc(SC[C@H](O)CN)c2)c(-c2nn[nH]n2)c1S(N)(=O)=O [Example 356, (R)-3′-((3-amino-2-hydroxypropyl)thio)-N4-(2-aminoethyl)-2-(2H-tetrazol-5-yl)-[1,1′-biphenyl]-3,4-disulfonamide] | 0.7813 | 0.7813 | 0.7813 | 2.00 | 0.7813 | 0.244 | 0.3906 | 1.82 | 1.41 | –
3 | NCCNS(=O)(=O)c1ccc(-c2cccc(SC[C@@H](O)CN)c2)c(-c2nn[nH]n2)c1S(N)(=O)=O [Example 357, (S)-5′-(3-amino-2-hydroxypropylthio)-N4-(2-aminoethyl)-2-(2H-tetrazol-5-yl)biphenyl-3,4-disulfonamide] | 0.7813 | 0.7813 | 0.7813 | 2.00 | 0.7813 | 0.224 | 0.3906 | 1.26 | 1.21 | –
4 | NCCNS(=O)(=O)c1ccc(-c2cccnc2N)c(-c2nn[nH]n2)c1S(N)(=O)=O [Example 358, N1-(2-aminoethyl)-4-(2-aminopyridin-3-yl)-3-(2H-tetrazol-5-yl)benzene-1,2-disulfonamide] | 0.3906 | 1.563 | 0.2441 | 2.00 | 1.563 | – | 0.7813 | 0.319 | 4.05 | 0.205
5 | NCCNS(=O)(=O)c1ccc(-c2cnc3cc[nH]c3c2)c(-c2nn[nH]n2)c1S(N)(=O)=O [Example 359, N1-(2-aminoethyl)-4-(1H-pyrrolo[3,2-b]pyridin-6-yl)-3-(2H-tetrazol-5-yl)benzene-1,2-disulfonamide] | 0.3906 | 1.563 | 0.09766 | 2.00 | 1.563 | – | 0.7813 | 0.154 | 1.61 | 0.254
6 | NCCNS(=O)(=O)c1ccc(-c2cccn3ccnc23)c(-c2nn[nH]n2)c1S(N)(=O)=O [Example 361, N1-(2-aminoethyl)-4-(imidazo[1,2-a]pyridin-8-yl)-3-(2H-tetrazol-5-yl)benzene-1,2-disulfonamide] | 0.7813 | 1.563 | 0.3906 | 1.00 | 0.7813 | 0.0953 | 0.7813 | 0.143 | 0.147 | –
7 | NC[C@H](CO)NS(=O)(=O)c1ccc(-c2ccnc(N)c2)c(-c2nn[nH]n2)c1S(N)(=O)=O [Example 362, (R)—N1-(1-amino-3-hydroxypropan-2-yl)-4-(2-aminopyridin-4-yl)-3-(2H-tetrazol-5-yl)benzene-1,2-disulfonamide] | 1.563 | 3.125 | 1.563 | 2.00 | 3.125 | 1.88 | 1.563 | 3.08 | 9.51 | –
8 | NCc1nc2c(-c3ccc(S(=O)(=O)N[C@H](CN)CO)c(S(N)(=O)=O)c3-c3nn[nH]n3)cccc2s1 [Example 363, (R)—N1-(1-amino-3-hydroxypropan-2-yl)-4-(2-(aminomethyl)benzo[d]thiazol-4-yl)-3-(2H-tetrazol-5-yl)benzene-1,2-disulfonamide] | 1.563 | 3.125 | 3.125 | 4.00 | 3.125 | 0.591 | 0.7813 | 0.649 | 3.67 | –
9 | NC[C@H](CO)NS(=O)(=O)c1ccc(-c2cccc(N)n2)c(-c2nn[nH]n2)c1S(N)(=O)=O [Example 364, (R)—N^1-(1-amino-3-hydroxypropan-2-yl)-4-(6-aminopyridin-2-yl)-3-(2H-tetrazol-5-yl)benzene-1,2-disulfonamide] | 3.125 | 6.25 | 3.125 | 2.00 | 3.125 | – | 1.563 | 3.25 | 14.6 | 3.24
10 | Nc1ccc(-c2ccc(S(=O)(=O)NC[C@@H](N)CO)c(S(N)(=O)=O)c2-c2nn[nH]n2)cn1 [Example 365, (R)—N1-(2-amino-3-hydroxypropyl)-4-(6-aminopyridin-3-yl)-3-(2H-tetrazol-5-yl) benzene-1,2-disulfonamide] | 0.3906 | 3.125 | 0.1953 | 2.00 | 1.563 | – | 0.7813 | 0.259 | 0.59 | 0.246
11 | Nc1nc2c(-c3ccc(S(=O)(=O)NC[C@]4(N)CCNC4)c(S(N)(=O)=O)c3-c3nn[nH]n3)cccc2s1 [Example 366, (S)-4-(2-aminobenzo[d]thiazol-4-yl)-N^1-((3-aminopyrrolidin-3-yl)methyl)-3-(2H-tetrazol-5-yl) benzene-1,2-disulfonamide] | 1.563 | 3.125 | 0.7813 | 1.00 | 0.7813 | 0.105 | 0.7813 | 0.0225 | 0.0753 | –
12 | Nc1nc2c(-c3ccc(S(=O)(=O)NC[C@@]4(N)CCNC4)c(S(N)(=O)=O)c3-c3nn[nH]n3)cccc2s1 [Example 367, (R)-4-(2-aminobenzo[d]thiazol-4-yl)-N1-((3-aminopyrrolidin-3-yl)methyl)-3-(2H-tetrazol-5-yl)benzene-1,2-disulfonamide] | 1.563 | 3.125 | 1.563 | 0.50 | 0.7813 | 0.0975 | 1.563 | 0.0193 | 0.0766 | –
13 | Nc1ccc(-c2ccc(S(=O)(=O)NC[C@]3(N)CCNC3)c(S(N)(=O)=O)c2-c2nn[nH]n2)cn1 [Example 368, (S)-4-(6-aminopyridin-3-yl)-N1-((3-aminopyrrolidin-3-yl)methyl)-3-(2H -tetrazol-5-yl)benzene-1,2-disulfonamide] | 0.7813 | 3.125 | 0.7813 | 1.00 | 1.563 | 0.253 | 1.563 | 0.203 | 0.304 | –
